The source of these data is patent publication US9682130B2 (priority 2015, dated 2017).

The test system of one data set is Adenovirus serotype Ad5. Briefly: Ad5/NZW rabbit ocular replication model, plaque assay of ocular samples. In kind it is in vivo. The conditions noted are these: 0.5% Cidofovir, twice daily 7 days. The procedure:
See, e.g., Romanowski, et al., The In Vitro and In Vivo Evaluation of ddC as a Topical Antiviral for Ocular Adenovirus Infections, Invest. Ophthalmol. Vis. Sci. 50: 5295-5299 (2009), which is hereby incorporated by reference in its entirety.
(§1) To conduct this in vivo assay, 25 NZW rabbit were anesthetized using the general anesthesia ketamine and xylazine and the topical anesthesia proparacaine. Each rabbit was then topically inoculated with 50 μL of Adenovirus serotype Ad5 (3×10^7 pfu/mL) in both eyes after corneal epithelial scarification (12 cross-hatched strokes of a 25 sterile needle). Eyes were closed and gently rubbed for 5 seconds to ensure contact of the virus on all ocular surfaces. […] All topical solutions (37 μL drops) were instilled with an electronic pipette (EDP; Rainin, Oakland, Calif.) set in the multi-dispense mode. Ocular swabbing to recover adenovirus from tear film and corneal and conjunctival surfaces, after topical anesthesia with proparacaine, was performed at least 1 hour after the final dose on days 0, 1, 3, 4, 5, 7, 9, 11, and 14 after inoculation. The ocular samples from each eye was placed individually into tubes containing 1 mL of medium and were frozen at −70° C. pending viral plaque assay.
The ocular samples were assayed for Ad5 titers by performing a plaque reduction assay. Samples were diluted 1:10 and these dilutions were inoculated onto duplicate wells of a 24 well multi-plate containing A549 monolayers. The virus was adsorbed for 3 hours at 37° C. in a 5% CO2-water vapor atmosphere without constant rocking. After adsorption, 1 mL of medium plus 0.5% methylcellulose was added to each well, and the plates were incubated at 37° C. in a 5% CO2-water vapor atmosphere. After 7 days, the cells were stained with 0.5% gentian violet, and the number of plaques counted using a dissecting microscope (25×). The viral titers were then calculated, and will be expressed as plaque-forming units per milliliter (PFU/mL). Data from the study were analyzed using analysis of variance (ANOVA) with Fisher's pair-wise comparisons and X^2 analyses using True Epistat and/or Minitab statistical software. Significance was established at the P≦0.05 confidence level.

The nature of data set [1]: Eye irritation, Draize scale (MMTS), Ad5/NZW rabbit ocular model. The class given is in vivo. The conditions noted are these: NZW, rabbit, in vivo. Here is the method: as §1, with “surfaces. Inoculation of both eyes allowed for the reduction in the number of animals needed without jeopardizing statistical validity.” for “surfaces.”
The animals were assayed for eye irritation using a Draize scale for ocular lesions. Classification of eye irritation was evaluated for both eyes of each rabbit on day 3 and day 9 using the maximum mean total score (MMTS; Table 4). See, e.g., Kay and Calandra, Interpretation of Eye Irritation Tests, J. Soc. Cos. Chem. 13: 281-289 (1962), the content of which is hereby incorporated by reference in its entirety. The MMTS score used was as follows: 0.0-0.5, Non-Irritating (N); 0.6-2.5, Practically Non-Irritating (PN); 2.6-15.0, Minimally Irritating (M1); 15.1-25.0, Mildly Irritating (M2); 25.1-50.0, Moderately Irritating (M3); 50.1-80.0, Severely Irritating (S); 80.1-100.0, Extremely Irritating (E); and 100.1-110.0, Maximally Irritating (Mx).

In data set [2] the test system is Human Adenovirus 8 (Ad8 strain 13306). Put plainly: Neutral red lysosomal uptake assay, Adenovirus 8. The class given is cell-based. The conditions noted are these: MA104; Adenovirus 8, MA-104 cells. Here is the method:
(§2) To assess in vitro cytotoxicity, both a cytopathic effects of a virus (CPE) regression assay and a neutral red lysosomal uptake cell viability assay was performed essentially as described in, e.g., Repetto, et al., Neutral Red Uptake Assay for the Estimation of Cell Viability/Cytotoxicity, Nat. Protoc. 3: 1125-1131 (2008), the content of which is hereby incorporated by reference in its entirety. Ninety-six-well plates were seeded with MA-104 cells at 1×10^5 cells/mL and incubated overnight at 37° C. with 5% CO2. […] Each dilution was added to 5 wells of a 96-well plate with 80% to 100% confluent cells, and three wells of each dilution were then infected with one of the two test viruses. Two wells remained uninfected as controls for toxicity. Six wells per plate were set aside as uninfected, untreated cell controls, and six wells per plate were infected with no treatment as virus controls. […] Assay plates were incubated at 37° C. with 5% CO2. […] After CPE reduction assay was completed, a neutral red lysosomal uptake assay was conducted by filling each well with 0.011% (m/v) neutral red, a vital stain. The plates then were incubated for about 2 hours at 37° C. in the dark. […] The plates were then read on a spectrophotometer at 540 nm to quantify the neutral red taken up by the healthy cells. […]

The test system of data set [3] is Human Adenovirus 5 (AD5 strain NYS #98-1836). Put plainly: microbe, parasite or virus in culture. The conditions noted are these: Human mastadenovirus C, MA104, Adenovirus 5, MA-104 cells. The class given is cell-based. Here is the method: To assess in vitro cytotoxicity, both a cytopathic effects of a virus (CPE) regression assay and a neutral red lysosomal uptake cell viability assay was performed essentially as described in, e.g., Repetto, et al., Neutral Red Uptake Assay for the Estimation of Cell Viability/Cytotoxicity, Nat. Protoc. 3: 1125-1131 (2008), the content of which is hereby incorporated by reference in its entirety. Ninety-six-well plates were seeded with MA-104 cells at 1×10^5 cells/mL and incubated overnight at 37° C. with 5% CO2. […] Each dilution was added to 5 wells of a 96-well plate with 80% to 100% confluent cells, and three wells of each dilution were then infected with one of the two test viruses. Two wells remained uninfected as controls for toxicity. Six wells per plate were set aside as uninfected, untreated cell controls, and six wells per plate were infected with no treatment as virus controls. […] Assay plates were incubated at 37° C. with 5% CO2. […] After CPE reduction assay was completed, a neutral red lysosomal uptake assay was conducted by filling each well with 0.011% (m/v) neutral red, a vital stain. The plates then were incubated for about 2 hours at 37° C. in the dark. The unincorporated neutral red solution was removed from the wells and the incorporated dye was then eluted by adding Sorensen's citrate-buffered ethanol. The plates were then read on a spectrophotometer at 540 nm to quantify the neutral red taken up by the healthy cells. The optical density of test wells was converted to percent of cell control and normalized to the virus controls.
The concentration of test compound required to inhibit CPE by 50% or reduce red uptake into cells by 50% (EC50) was calculated by regression analysis. The toxicity of the compound without virus present was similarly calculated using the uninfected wells treated with test compounds compared with untreated cell controls. The concentration of compound that would cause 50% cytotoxic effects in the absence of virus (CC50) was estimated by linear regression analysis. The selectivity index (SI) is the CC50 divided by EC50.

The subject of data set [4] is Human Adenovirus 8 (Ad8 strain 13306). Briefly: CPE reduction assay, Adenovirus 8. The class given is cell-based. The conditions noted are these: MA104; Adenovirus 8, MA-104 cells. The procedure:
as §2

The subject of a further data set is MA-104 cells. The conditions noted are these: African green monkey.
Another data set can be described thus: in vitro. The conditions noted are these: African green monkey.

Values after ≈ are worked out from the molar mass of the structure shown. Where two headings read alike, the source gives them in different places.

Take `Nc1ccn(C[C@@H](CO)OCP(=O)(O)O)c(=O)n1` [CDV, Cidofovir, reference compound]: in the data set with Adenovirus serotype Ad5, the “Ad5-positive ocular samples, percent, Day 1” value is on record as 100%; the “Ad5-positive ocular samples, percent, Day 3” value stood at 100%; the “Ad5-positive ocular samples, percent, Day 4” value stood at 100%; the “Ad5-positive ocular samples, percent, Day 5” value turned out to be 100%. Moreover, in the data set with Adenovirus serotype Ad5, the “Ad5-positive ocular samples, percent, Day 7” value is 63%; the “Ad5-positive ocular samples, percent, Day 11” value is given as 0%; the “Ad5-positive ocular samples, percent, Day 14” value is on record as 0%; the “Ad5-positive ocular samples, percent, Total” value came to 66.1%. Moreover, in the data set with Adenovirus serotype Ad5, the “Ad5-positive ocular samples/total eyes, Day 1” value is 8/8; the “Ad5-positive ocular samples/total eyes, Day 3” value was 8/8; the “Ad5-positive ocular samples/total eyes, Day 4” value is given as 8/8; the “Ad5-positive ocular samples/total eyes, Day 5” value is reported as 8/8. Also, in the data set on Adenovirus serotype Ad5, the “Ad5-positive ocular samples/total eyes, Day 7” value is listed as 5/8; the “Ad5-positive ocular samples/total eyes, Day 11” value was 0/8; the “Ad5-positive ocular samples/total eyes, Day 14” value is reported as 0/8; the “Ad5-positive ocular samples/total eyes, Total” value was 37/56. For the same compound, the “Ocular irritation MMTS score, Day 3” value in data set [1] (3 day) came to 5.9. For the same compound, in data set [1] (9 day), the “Ocular irritation MMTS score, Day 9” value stood at 27.5.

Take `Nc1ccn([C@H]2CC[C@@H](CO)O2)c(=O)n1` [ddC, 2′, 3′-Dideoxycytidine]: the EC50 in data set [2] is 2.7 µg/mL (≈ 12.8 µM); in data set [3] (read-out: CPE Reduction Assay EC50) it was 2.1 µg/mL (≈ 9.94 µM); in data set [3] (read-out: Neutral Red Assay EC50), 2.7 µg/mL (≈ 12.8 µM); in data set [4], 2.1 µg/mL (≈ 9.94 µM). Besides, the “CPE Reduction Assay CC50” value in the data set with MA-104 cells is under 5000 µg/mL. Moreover, the “Neutral Red Assay CC50” value in the data set with MA-104 cells was under 5000 µg/mL. In addition, the CC50 in the data set “in vitro” is under 5000 µg/mL.

What is called EC50 is the concentration giving half of the maximal effect.
